Experimental data: ChEMBL document CHEMBL3286360, “Tuning the antimicrobial pharmacophore to enable discovery of short lipopeptides with multiple modes of action” (Eur J Med Chem, 2014)
In brackets after ≈: the same amount, converted by molar mass. Where a SMILES comes first, the peptide text is derived from it. The star is where a group is joined. Palmitoyl = CCCCCCCCCCCCCCCC(=O)*; Myristoyl = CCCCCCCCCCCCCC(=O)*; Lauroyl = CCCCCCCCCCCC(=O)*; Decanoyl = CCCCCCCCCC(=O)*; Octanoyl = CCCCCCCC(=O)*; Hexanoyl = CCCCCC(=O)*

Key:
Type in all cases: functional
Escherichia coli = experiment: Antimicrobial activity against Escherichia coli ATCC 25922 after 17 to 20 hrs by serial dilution method
Staphylococcus aureus = experiment: Antimicrobial activity against Staphylococcus aureus ATCC 12600 after 17 to 20 hrs by serial dilution method
Candida albicans = experiment: Antimicrobial activity against Candida albicans ATCC 14053 after 17 to 20 hrs by serial dilution method

| SMILES | MIC (Escherichia coli) [µg/mL] | MIC (Staphylococcus aureus) [µg/mL] | MIC (Candida albicans) [µg/mL] |
| --- | --- | --- | --- |
| CCCCCCCCCC(=O)N[C@@H](CCCNC(=N)N)C(=O)N[C@@H](Cc1c[nH]c2ccccc12)C(=O)N[C@@H](CCCNC(=N)N)C(N)=O (Decanoyl-Arg-Trp-Arg-NH2) | 15.6 (≈ 23.3 µM) | 7.8 (≈ 11.6 µM) | > 62.5 |
| CCCCCCCCCC(=O)N[C@@H](CCCCN)C(=O)N[C@H](C(=O)N[C@@H](CCCCN)C(=O)N[C@@H](CCCNC(=N)N)C(=O)N[C@@H](Cc1c[nH]c2ccccc12)C(=O)N[C@@H](CCCNC(=N)N)C(N)=O)[C@@H](C)CC (Decanoyl-KIKRWR-NH2) | 31.2 (≈ 30 µM) | 15.6 (≈ 15 µM) | > 62.5 |
| CCCCCCCCCC(=O)N[C@@H](CCCCN)C(=O)N[C@H](C(=O)N[C@@H](CCCCN)C(=O)N[C@@H](CCCNC(=N)N)C(=O)N[C@@H](Cc1c[nH]c2ccccc12)C(=O)N[C@@H](Cc1c[nH]c2ccccc12)C(=O)N[C@@H](CCCNC(=N)N)C(N)=O)[C@@H](C)CC (Decanoyl-KIKRWWR-NH2) | 7.8 (≈ 6.36 µM) | 3.9 (≈ 3.18 µM) | > 62.5 |
| CCCCCCCCCC(=O)N[C@@H](CCCCN)C(=O)N[C@H](C(=O)N[C@@H](CCCNC(=N)N)C(=O)N[C@@H](Cc1c[nH]c2ccccc12)C(=O)N[C@@H](Cc1c[nH]c2ccccc12)C(=O)N[C@@H](CCCNC(=N)N)C(N)=O)[C@@H](C)CC (Decanoyl-KIRWWR-NH2) | 15.6 (≈ 14.2 µM) | 3.9 (≈ 3.55 µM) | > 62.5 |
| CCCCCCCCCC(=O)N[C@@H](CCCCN)C(=O)N[C@H](C(=O)N[C@@H](Cc1c[nH]c2ccccc12)C(=O)N[C@@H](Cc1c[nH]c2ccccc12)C(=O)N[C@@H](CCCCN)C(N)=O)[C@@H](C)CC (Decanoyl-KIWWK-NH2) | 7.8 (≈ 8.54 µM) | 3.9 (≈ 4.27 µM) | 15.6 (≈ 17.1 µM) |
| CCCCCCCCCC(=O)N[C@@H](CCCCN)C(=O)N[C@@H](CCCCN)C(=O)N[C@H](C(=O)N[C@@H](CCCNC(=N)N)C(=O)N[C@@H](Cc1c[nH]c2ccccc12)C(=O)N[C@@H](CCCNC(=N)N)C(N)=O)[C@@H](C)CC (Decanoyl-KKIRWR-NH2) | 7.8 (≈ 7.5 µM) | 7.8 (≈ 7.5 µM) | > 62.5 |
| CCCCCCCCCC(=O)N[C@@H](CCCCN)C(=O)N[C@@H](CCCCN)C(=O)N[C@@H](Cc1c[nH]c2ccccc12)C(=O)N[C@@H](CCCCN)C(N)=O (Decanoyl-KKWK-NH2) | > 31.2 | 31.2 (≈ 42 µM) | > 62.5 |
| CCCCCCCCCC(=O)N[C@@H](CCCCN)C(=O)N[C@@H](CCCCN)C(=O)N[C@@H](Cc1c[nH]c2ccccc12)C(=O)N[C@@H](Cc1c[nH]c2ccccc12)C(N)=O (Decanoyl-KKWW-NH2) | 7.8 (≈ 9.75 µM) | 3.9 (≈ 4.87 µM) | 31.2 (≈ 39 µM) |
| CCCCCCCCCC(=O)N[C@@H](CCCCN)C(=O)N[C@@H](CCCNC(=N)N)C(=O)N[C@H](C(=O)N[C@@H](Cc1c[nH]c2ccccc12)C(=O)N[C@@H](Cc1c[nH]c2ccccc12)C(=O)N[C@@H](CCCNC(=N)N)C(N)=O)[C@@H](C)CC (Decanoyl-KRIWWR-NH2) | 7.8 (≈ 7.11 µM) | 3.9 (≈ 3.55 µM) | > 62.5 |
| CCCCCCCCCC(=O)N[C@@H](CCCCN)C(=O)N[C@@H](Cc1c[nH]c2ccccc12)C(=O)N[C@@H](Cc1c[nH]c2ccccc12)C(=O)N[C@@H](CCCCN)C(N)=O (Decanoyl-KWWK-NH2) | 15.6 (≈ 19.5 µM) | 7.8 (≈ 9.75 µM) | 31.2 (≈ 39 µM) |
| CCCCCCCCCC(=O)N[C@@H](CCCNC(=N)N)C(=O)N[C@@H](Cc1c[nH]c2ccccc12)C(=O)N[C@@H](CCCNC(=N)N)C(=O)N[C@@H](Cc1c[nH]c2ccccc12)C(N)=O (Decanoyl-RWRW-NH2) | 15.6 (≈ 18.2 µM) | 7.8 (≈ 9.11 µM) | > 62.5 |
| CCCCCCCCCC(=O)N[C@@H](CCCNC(=N)N)C(=O)N[C@@H](Cc1c[nH]c2ccccc12)C(=O)N[C@@H](Cc1c[nH]c2ccccc12)C(=O)N[C@@H](CCCNC(=N)N)C(N)=O (Decanoyl-RWWR-NH2) | 15.6 (≈ 18.2 µM) | 7.8 (≈ 9.11 µM) | 15.6 (≈ 18.2 µM) |
| CCCCCC(=O)N[C@@H](CCCNC(=N)N)C(=O)N[C@@H](CCCCN)C(=O)N[C@@H](Cc1c[nH]c2ccccc12)C(=O)N[C@@H](Cc1c[nH]c2ccccc12)C(=O)N[C@@H](CCCCN)C(N)=O (Hexanoyl-RKWWK-NH2) | > 62.5 | 31.2 (≈ 34.7 µM) | – |
| CCCCCCCCCCCC(=O)N[C@@H](CCCNC(=N)N)C(=O)N[C@@H](CCCCN)C(=O)N[C@@H](Cc1c[nH]c2ccccc12)C(=O)N[C@@H](Cc1c[nH]c2ccccc12)C(=O)N[C@@H](CCCCN)C(N)=O (Lauroyl-RKWWK-NH2) | 7.8 (≈ 7.92 µM) | 7.8 (≈ 7.92 µM) | – |
| CCCCCCCCCCCCCC(=O)N[C@@H](CCCNC(=N)N)C(=O)N[C@@H](Cc1c[nH]c2ccccc12)C(=O)N[C@@H](CCCNC(=N)N)C(N)=O (Myristoyl-Arg-Trp-Arg-NH2) | 15.6 (≈ 21.5 µM) | 15.6 (≈ 21.5 µM) | > 62.5 |
| CCCCCCCCCCCCCC(=O)N[C@@H](CCCCN)C(=O)N[C@H](C(=O)N[C@@H](CCCCN)C(=O)N[C@@H](CCCNC(=N)N)C(=O)N[C@@H](Cc1c[nH]c2ccccc12)C(=O)N[C@@H](CCCNC(=N)N)C(N)=O)[C@@H](C)CC (Myristoyl-KIKRWR-NH2) | 15.6 (≈ 14.2 µM) | 3.9 (≈ 3.56 µM) | > 62.5 |
| CCCCCCCCCCCCCC(=O)N[C@@H](CCCCN)C(=O)N[C@H](C(=O)N[C@@H](CCCCN)C(=O)N[C@@H](CCCNC(=N)N)C(=O)N[C@@H](Cc1c[nH]c2ccccc12)C(=O)N[C@@H](Cc1c[nH]c2ccccc12)C(=O)N[C@@H](CCCNC(=N)N)C(N)=O)[C@@H](C)CC (Myristoyl-KIKRWWR-NH2) | 31.2 (≈ 24.3 µM) | 15.6 (≈ 12.2 µM) | > 62.5 |
| CCCCCCCCCCCCCC(=O)N[C@@H](CCCCN)C(=O)N[C@H](C(=O)N[C@@H](CCCNC(=N)N)C(=O)N[C@@H](Cc1c[nH]c2ccccc12)C(=O)N[C@@H](Cc1c[nH]c2ccccc12)C(=O)N[C@@H](CCCNC(=N)N)C(N)=O)[C@@H](C)CC (Myristoyl-KIRWWR-NH2) | 31.2 (≈ 27 µM) | 15.6 (≈ 13.5 µM) | > 62.5 |
| CCCCCCCCCCCCCC(=O)N[C@@H](CCCCN)C(=O)N[C@H](C(=O)N[C@@H](Cc1c[nH]c2ccccc12)C(=O)N[C@@H](Cc1c[nH]c2ccccc12)C(=O)N[C@@H](CCCCN)C(N)=O)[C@@H](C)CC (Myristoyl-KIWWK-NH2) | 31.2 (≈ 32.2 µM) | 7.8 (≈ 8.05 µM) | 31.2 (≈ 32.2 µM) |
| CCCCCCCCCCCCCC(=O)N[C@@H](CCCCN)C(=O)N[C@@H](CCCCN)C(=O)N[C@H](C(=O)N[C@@H](CCCNC(=N)N)C(=O)N[C@@H](Cc1c[nH]c2ccccc12)C(=O)N[C@@H](CCCNC(=N)N)C(N)=O)[C@@H](C)CC (Myristoyl-KKIRWR-NH2) | 7.8 (≈ 7.12 µM) | 3.9 (≈ 3.56 µM) | > 62.5 |
| CCCCCCCCCCCCCC(=O)N[C@@H](CCCCN)C(=O)N[C@@H](CCCCN)C(=O)N[C@@H](Cc1c[nH]c2ccccc12)C(=O)N[C@@H](CCCCN)C(N)=O (Myristoyl-KKWK-NH2) | 7.8 (≈ 9.77 µM) | 3.9 (≈ 4.89 µM) | > 62.5 |
| CCCCCCCCCCCCCC(=O)N[C@@H](CCCCN)C(=O)N[C@@H](CCCCN)C(=O)N[C@@H](Cc1c[nH]c2ccccc12)C(=O)N[C@@H](Cc1c[nH]c2ccccc12)C(N)=O (Myristoyl-KKWW-NH2) | 15.6 (≈ 18.2 µM) | 7.8 (≈ 9.11 µM) | 15.6 (≈ 18.2 µM) |
| CCCCCCCCCCCCCC(=O)N[C@@H](CCCCN)C(=O)N[C@@H](CCCNC(=N)N)C(=O)N[C@H](C(=O)N[C@@H](Cc1c[nH]c2ccccc12)C(=O)N[C@@H](Cc1c[nH]c2ccccc12)C(=O)N[C@@H](CCCNC(=N)N)C(N)=O)[C@@H](C)CC (Myristoyl-KRIWWR-NH2) | 15.6 (≈ 13.5 µM) | 7.8 (≈ 6.76 µM) | > 62.5 |
| CCCCCCCCCCCCCC(=O)N[C@@H](CCCNC(=N)N)C(=O)N[C@H](C(=O)N[C@@H](CCCCN)C(=O)N[C@@H](Cc1c[nH]c2ccccc12)C(=O)N[C@@H](Cc1c[nH]c2ccccc12)C(=O)N[C@@H](CCCCN)C(N)=O)[C@@H](C)CC (Myristoyl-RIKWWK-NH2) | 15.6 (≈ 13.9 µM) | 7.8 (≈ 6.93 µM) | > 62.5 |
| CCCCCCCCCCCCCC(=O)N[C@@H](CCCNC(=N)N)C(=O)N[C@@H](CCCCN)C(=O)N[C@@H](Cc1c[nH]c2ccccc12)C(=O)N[C@@H](Cc1c[nH]c2ccccc12)C(=O)N[C@@H](CCCCN)C(N)=O (Myristoyl-RKWWK-NH2) | 15.6 (≈ 15.4 µM) | 7.8 (≈ 7.7 µM) | > 62.5 |
| CCCCCCCCCCCCCC(=O)N[C@@H](CCCNC(=N)N)C(=O)N[C@@H](Cc1c[nH]c2ccccc12)C(=O)N[C@@H](CCCNC(=N)N)C(=O)N[C@@H](Cc1c[nH]c2ccccc12)C(N)=O (Myristoyl-RWRW-NH2) | 15.6 (≈ 17.1 µM) | 15.6 (≈ 17.1 µM) | > 62.5 |
| CCCCCCCC(=O)N[C@@H](CCCNC(=N)N)C(=O)N[C@@H](CCCCN)C(=O)N[C@@H](Cc1c[nH]c2ccccc12)C(=O)N[C@@H](Cc1c[nH]c2ccccc12)C(=O)N[C@@H](CCCCN)C(N)=O (Octanoyl-RKWWK-NH2) | 62.5 (≈ 67.3 µM) | 15.6 (≈ 16.8 µM) | – |
| CCCCCCCCCCCCCCCC(=O)N[C@@H](CCCNC(=N)N)C(=O)N[C@@H](CCCCN)C(=O)N[C@@H](Cc1c[nH]c2ccccc12)C(=O)N[C@@H](Cc1c[nH]c2ccccc12)C(=O)N[C@@H](CCCCN)C(N)=O (Palmitoyl-RKWWK-NH2) | 31.2 (≈ 30 µM) | 31.2 (≈ 30 µM) | – |
